# Assay results from paper PMC11879692, “PDE4 inhibitor rolipram represses hedgehog signaling via ubiquitin-mediated proteolysis of GLI transcription factors to regress breast cancer” (The Journal of Biological Chemistry, 2025).
# Experiments:
# [1] = test system: GLI2 and GLI3 in MCF-7 cells; experiment: Ubiquitination of GLI2 and GLI3 (HA-Ub transfection, immunoprecipitation, anti-HA blot); format: cell-based, human
# Experimental: (§1) HA-Ubiquitin plasmid (Addgene; catalog no.: plasmid #18712, RRID: Addgene_18712) was transfected into MCF-7 and MDA-MB-231 cells using X-tremeGENE HP DNA Transfection Reagent (Roche; catalog no.: XTGHP-RO). Proteins were extracted from the untreated control cells and cells treated with rolipram for 24 h and were immunoprecipitated using antibodies raised against GLI2 and GLI3. The immunoprecipitation involved overnight incubation of protein and antibodies in Pierce Protein A/G Agarose (Thermo Scientific; catalog no.: 20421) at 4°C. Following immunoprecipitation, the precipitate was subjected to Western blot analysis using anti-HA antibodies (Cell Signaling Technology; catalog no.: 2367; RRID: AB_10691311) to observe ubiquitination of the desired proteins. Cells were cotreated with MG-132 (Sigma–Aldrich; catalog no.: M7449), a proteosomal blocker for ascertaining ubiquitination ([35]).
# [2] = test system: GLI2 and GLI3 in MDA-MB-231 cells; experiment: as above; format: cell-based, human
# Experimental: as §1
# [3] = test system: 4T1 mice breast carcinoma cells, mammary fat pad tumor; experiment: Solid tumor in mice, tumor weight and volume; format: in vivo, BALB/c mice; details: vs untreated tumor
# Experimental: (§2) Solid tumors were developed in BALB/c mice (n = 3) except the control group (group I) by injecting 1 × 10^4 viable 4T1 (RRID: CVCL_0125) mice breast carcinoma cells (resuspended in 50 μl of PBS) into the inguinal fourth mammary fat pad, and the tumor was allowed to develop for 14 days ([37], [38]). Mice were randomly divided into three groups, viz., untreated tumor (group II), mice treated intraperitoneally with 1 mg//kg bodyweight of rolipram (group III), and mice receiving 5 mg/kg bodyweight of rolipram, intraperitoneally (group IV) ([39], [40]). After 14 days, the mice were sacrificed. Lung, kidney, liver, serum, and the tumors were collected for further experiments ([15]).
# Weight of mammary fat pad of mice from group I and weight of tumors from groups II, III, and IV were measured using digital fine balance. Width and length of the tumors obtained from mice of groups II, III, and IV were measured using digital Vernier caliper. The volume was measured by the formula V = half × (W × W × L), where V is the volume, W is the width, and L is the length of the tumors ([15], [41]).
# MDA-MB-231 cells [4] = experiment: MTT cell viability assay; format: cell-based; details: Homo sapiens, 24 h, read-out: concentration for 50% growth inhibition (IC50)
# Experimental: (§3) To determine the concentration of rolipram required for 50% growth inhibition (IC50) of MCF-7 and MDA-MB-231 cells, MTT (3-[4,5-dimethylthiazol-2-yl]-2,5 diphenyl tetrazolium bromide) assay, which relies on the reduction of MTT to form purple-colored formazan crystals by mitochondrial dehydrogenases, was performed ([27]). Cells were seeded in a 96-well plate at a density of 3 × 10^3 cells/well and treated with increasing concentrations of rolipram ranging from 1 to 80 μM. MTT (G Biosciences; catalog no.: RC1130) was added after 24 h of treatment, formazan crystals were dissolved in 100 μl of DMSO, and absorbance measured at 595 nm using the BioRad iMark Microplate Reader (RRID: SCR_023799). The percentage of metabolically active cells was calculated with respect to untreated control cells, negating the blank reading. Graphs were plotted for the percentages of viable cells against the concentrations of rolipram to obtain linear trend-line equations, which were used to derive the IC50 concentration of rolipram for each cell lines. The IC50 doses were used for all subsequent experiments ([28]).
# MCF-7 cells [5] = experiment: MTT cell viability assay; format: cell-based; details: Homo sapiens, MCF7, 24 h, read-out: concentration for 50% growth inhibition (IC50)
# Experimental: as §3
# MDA-MB-231 cells [6] = experiment: Annexin V-FITC and PI double staining; format: cell-based, human; details: MDA-MB-231, IC50 dose, 24 h
# Experimental: (§4) To analyze if the cells have undergone necrosis or apoptosis because of 24 h of rolipram treatment, cells were double stained with Annexin V-FITC and PI using BD Pharmingen Annexin V:FITC Apoptosis Detection Kit (BD Biosciences; catalog no.: BD556547) using the manufacturer’s protocol. The data obtained from BD LSRFortessa flow cytometer (RRID: SCR_019600) were analyzed using BD FACSDiva 9.0 software ([31], [32]) (RRID: SCR_001456).
# MCF-7 cells [7] = experiment: Annexin V-FITC and PI double staining; format: cell-based, human; details: MCF-7, IC50 dose, 24 h
# Experimental: as §4
# [8] = test system: 4T1 mice breast carcinoma cells, mammary fat pad tumor; experiment: Histological study of mammary tissue and lung of tumor-bearing mice; format: in vivo, BALB/c mice; details: for number of cells per unit area (480 px × 400 px) of lung histological sections: tumor-induced 213 ± 20, control 143 ± 19, mean ± SD
# Experimental: as §2
# Tissue samples of mammary tissue, lung, kidney, and liver from each group of mice were fixed in Bouin’s solution (Sigma–Aldrich; catalog no.: HT10132), dehydrated in graded alcohol, and embedded in paraffin wax. Thin sections (5 μm) of tissues were mounted on glass slides and stained with hematoxylin (Sigma–Aldrich; catalog no.: H3136), following rehydration with graded alcohol. The samples were again dehydrated with graded alcohol and stained with eosin and mounted with Dystyrene Plasticizer Xylene ([42]). The images were obtained in an Olympus CKX53 Inverted Microscope (RRID: SCR_025025) at 10X magnifications with MagVision Software (Magnus). The QuPath (RRID: SCR_018257) software ([43]) was used to detect the cells and determine the area of individual cells and their corresponding nuclei in each image. The tab-delimited text file obtained from QuPath software was utilized by NumPy ([44]) (RRID: SCR_008633) to determine the nucleus-to-cytoplasm ratio of individual cells, and the frequency (cell count) of the nucleus-to-cytoplasm ratio was plotted by MatPlotLib (RRID: SCR_008624), a Python (RRID: SCR_008394) 2D plotting library. For quantifying the number of cells in a unit area of histological section of lung, each section image was divided into 12 equal parts (dimensions: 480 px × 400 px). The number of cells in each part was obtained from QuPath (RRID: SCR_018257) software, and the values were represented as mean ± SD.
# [9] = 1 mg/kg bodyweight i.p., 14 days of treatment
# [10] = 5 mg/kg bodyweight i.p., 14 days
compound,measurement,setting,value
"COc1ccc(C2CNC(=O)C2)cc1OC1CCCC1 (stereo not shown) [rolipram, Rolipram]",ubiquitination of GLI2 and GLI3,"[1]; MCF-7, IC50 dose, 6 h to 24 h",significant ubiquitination
same,ubiquitination of GLI2 and GLI3,"[1]; MCF-7, in the presence of H89",not able to induce ubiquitination
same,ubiquitination of GLI2 and GLI3,"[2]; MDA-MB-231, IC50 dose",ubiquitination of both proteins was also observed
same,ubiquitination of GLI2 and GLI3,"[2]; MDA-MB-231, in the presence of H89",not able to induce ubiquitination
same,reduction of tumor volume,[3]; [9],twofold
same,reduction of tumor weight,[3]; [9],twofold
same,reduction of tumor volume,[3]; [10],2.8 fold
same,reduction of tumor weight,[3]; [10],3.4 fold
same,IC50,MDA-MB-231 cells [4],53 µM
same,IC50,MCF-7 cells [5],38 µM
same,increase in the dead cell population,MDA-MB-231 cells [6],5.2%
same,increase in the dead cell population,MCF-7 cells [7],8.1%
same,number of cells per unit area (480 px × 400 px) of lung histological sections,[8]; 1 mg/kg bodyweight,154 ± 11
same,number of cells per unit area (480 px × 400 px) of lung histological sections,[8]; 5 mg/kg bodyweight,119 ± 10
same,metastatic cellular infiltration in the lung tissues,[8]; rolipram-treated tumor-bearing mice,significantly reduce
same,multinucleated cells in the mammary fat pad and glandular region,"[8]; rolipram-treated tumor-bearing mice, p < 0.001",reduced
